Measurements: patent US20200088732A1, “METHODS FOR THE DIAGNOSIS AND TREATMENT OF PANCREATIC DUCTAL ADENOCARCINOMA” (INSERM (Institut National de la Santé et de la Recherche …, priority 2017, published 2020)

Tests used:
Type in all cases: cell-based
[1] = test system: Mouse pancreatic cancer cell, Pk4A; test: Cell migration assay (Boyden chambers), Pk4A cells; details: versus ACm/PAP+ media, AG490 30 μM, 1 hr 45 min, P<0.05, FIG. 2E
Experimental: (§1) Cancer cell migration was studied using PKA4 and PANC-1 cell lines under different media (medium with or without recombinant PAP/REG3A or conditioned medium from acinar cells) on Boyden chambers. Culture inserts from BD Biosciences (353097, Le pont le Claix, FR), with a porous membrane of […], were coated with a mix made of gelatin 0.1% from Sigma-Aldrich (G1890, St Quentin, FR) and fibronectin 10 μg/mL from Sigma-Aldrich (F0895, St Quentin, FR) then seeded with PK4A or PANC-1 cells (100 0000 or 75 000 cells respectively per insert) and placed into wells containing culture media (with or without recombinant PAP/REG3A). PAP/REG3A or […] were used from 0 to 500 ng/mL. Migration was performed for 4 hrs for medium with or without recombinant PAP/REG3A or β and for 1 hr 45 min for conditioned medium from acinar cells. After cleaning and briefly staining inserts with coomassie blue, migration was assessed by counting (Image J software) the number of colored cells in 8-16 high-power fields (magnification ×10).

[2] = test system: Human pancreatic cancer cell, Panc-1; test: Cell migration assay (Boyden chambers), Panc-1 cells; details: 100 ng/mL PAP/REG3A recombinant protein, AG490 at 30 μM, P<0.05, FIG. 2C
Experimental: as §1

[3] = test system: Mouse pancreatic cancer cell, Pk4A; test: Cell invasion assay (matrigel Boyden chambers), PK4A cells; details: PAP/REG3β 500 ng/mL, AG490 30 μmol/L, 24 hrs, P<0.05, FIG. 2D
Experimental: Cancer cell invasion was studied using PKA4 cells on Boyden chambers according to manufacturer's protocol (354480, Corning Lifesciences, Corning, N.Y., USA). Mouse recombinant PAP/REG3β was used at 500 ng/mL and AG490 at 30 μmol/L. Culture inserts were pre-coated with matrigel matrix then seeded with PK4A (100 0000 cells per insert) and placed into wells containing the medium. Cell counting was measured after 24 hrs of incubation. After cleaning and briefly staining inserts with coomassie blue, invasion was assessed by counting (Image J software) the number of colored cells in 8-16 high-power fields (magnification ×10).

[4] = test system: Pk4A cells; test: Ex vivo peri-neural invasion assay (mouse sciatic nerve co-cultured with cancer cells)
Experimental: The day before the experiment 125,000 PK4A cells are seeded in 24 well plates in DMEM supplemented with 10% FBS and 1% antibiotic/antimycotic. 24 hrs after inhibitors (AG490 at 30 μmol/L or SC144 at 2 μmol/L) were added for 2 h. […] A mouse sciatic nerve section (5 mm) is placed in every well and cultured for 48 hrs then nerve sections are fixed 24 hrs in 4% formaldehyde and embedded in paraffin for immunohistochemistry study. Nerve sections from each condition are cut to make 4 μm sections from 2 different depths spaced by 50 μm and fixed on slides. Slides are processed for cytokeratin immunostaining by IHC as mentioned above. Cells stained with cytokeratine inside or in contact with nerve are recorded (Image J software).
Using human PDA slides, we observed that PAP/REG3A staining is associated with nerve density (Data not shown). Indeed, nerve fibers are mainly present in tissues areas where PAP/REG3A is strongly expressed. […] To further deepen the suspected role of PAP/REG3A as favoring PNI, we designed a specific ex-vivo experiment. Such experiment was done using mouse sciatic nerve fibers that we incubated with Pk4A cells+/−PAP/REG3β mouse recombinant protein (Data not shown). […]

Row | Compound | change of the ACm/PAP+-induced increase of Pk4A migration [1] | effect of inhibitor on PAP/REG3A-induced Panc-1 migration [2] | effect of inhibitor on PAP/REG3β-induced invasion [3] | effect of inhibitor on PAP/REG3β-induced nerve fibers invasion by pancreatic cancer cells ([4]; PAP/REG3β 500 ng/mL, AG490 30 μmol/L, FIG. 3A) | PNI relative to acinar cell media containing PAP/REG3β (ACm/PAP+) ([4]; Pk4A with nerve fibers and acinar cell media, SC144 2 μmol/L, P<0.05, FIG. 3B)
1 | N#C/C(=C\c1ccc(O)c(O)c1)C(=O)NCc1ccccc1 [AG490] | significantly reduced | impair PAP/REG3A effect on Panc-1 migration | inhibited | impairs significantly | –
2 | O=C(NNc1nc2cc(F)ccc2n2cccc12)c1cnccn1 [SC144] | – | – | – | – | drastically reduced
